According to publication PMC9811578 (Chemical Science, 2022):
Non-standard residues stand in square brackets, D forms with d. Residues, ends and D or L forms follow the SMILES beside them.

Experiments:
PAMPA = format: in vitro ADME
Horizon-LBA = format: in vitro ADME; conditions: not told
[1] = R. Strutt and coworkers; cited from earlier work

SMILES | Papp (PAMPA) | Papp (Horizon-LBA) | permeability coefficient (DIB of DOPC, UV detector) [1]
COc1ccc(C[C@@H]2NC(=O)[C@@H](CC(C)C)NC(=O)[C@H](C(C)C)NC(=O)[C@H](CC(C)C)NC(=O)[C@@H](CC(C)C)NC(=O)[C@H]3CCCN3C2=O)cc1 [Peptide 1] (cyclo(LV[dL]Y(Me)[dP][dL])) | 16.5 ± 0.9 ×10⁻⁶ cm/s | 300 ± 100 ×10⁻⁶ cm/s | 
Cn1c(=O)c2c(ncn2C)n(C)c1=O [Caffeine] |  |  | 2.81 ± 0.0920 × 10^−4 cm s^−1
